Laboratory results reported in US20250066389A1, “HETEROCYCLIC AMIDES AND METHODS OF USING THE SAME” (Rgenta Therapeutics, Inc., priority 2021, published 2025).

Each molecule was assayed on PMS1 (assay: Mini-Gene Reporter Assay—PMS1 (firefly luciferase mini-gene reporter transiently transfected into HEK293 cells)). Settings: Homo sapiens; at 5 uM; mini-gene firefly luciferase reporter in HEK293 cells; read-out: PMS1 % Effect at 5 uM.
Type: cell-based
How it was run: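 Luminescence (RLU) read-out of exon inclusion: compound dilutions, tested in duplicate, act on transiently transfected HEK293 cells carrying a firefly luciferase reporter fused downstream of the PMS1 skipped-exon region. Potency derived by Levenberg-Marquardt curve fitting, with percent effect at 5 μM.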

Compound | activation at 5 µM [%]
CCOc1cc2nn(C)cc2cc1C(=O)Nc1cnc(N2CCCC(CCN)C2)cn1 (stereo not drawn) [Compound 353] | < 50
CCOc1cc2nn(C)cc2cc1C(=O)Nc1cnc(NCC2CNCCO2)cn1 (stereo not drawn) [Compound 354] | < 50
CCOc1cc2nn(C)cc2cc1C(=O)Nc1cnc(NC2CCNCC2F)cn1 (stereo not drawn) [Compound 355] | > 75
CCOc1cc2nn(C)cc2cc1C(=O)Nc1cnc(NC(C)C2CCNCC2)cn1 (stereo not drawn) [Compound 356] | < 50
CCOc1cc2nn(C)cc2cc1C(=O)Nc1cnc(N2CCOC3(CCNCC3)C2)cn1 [Compound 357] | < 50
CCOc1cc2nn(C)cc2cc1C(=O)Nc1cnc(NCCC2CCCCN2)cn1 (stereo not drawn) [Compound 358] | 50 to 75
CCOc1cc2nn(C)cc2cc1C(=O)Nc1cnc(NC[C@@H]2C[C@H]3CC[C@@H](C2)N3)cn1 [Compound 359] | < 50
CCOc1cc2nn(C)cc2cc1C(=O)Nc1cnc(N2CCN[C@@H](C(C)C)C2)cn1 [Compound 360] | > 75
CCOc1cc2nn(C)cc2cc1C(=O)Nc1cnc(N2CCC(NC)C2)cn1 (stereo not drawn) [Compound 361] | > 75
CCOc1cc2nn(C)cc2cc1C(=O)Nc1cnc(NCCCN2CCNCC2)cn1 [Compound 362] | < 50
CCOc1cc2nn(C)cc2cc1C(=O)Nc1cnc(N2C[C@H]3CNC[C@H]3C2)cn1 [Compound 363] | > 75
CCOc1cc2nn(C)cc2cc1C(=O)Nc1cnc(NC[C@@H]2CCNC2)cn1 [Compound 364] | 50 to 75
CCCNCCNc1cnc(NC(=O)c2cc3cn(C)nc3cc2OCC)cn1 [Compound 365] | > 75
CCOc1cc2nn(C)cc2cc1C(=O)Nc1cnc(N[C@@H]2C[C@H]3CC[C@@H](C2)N3)cn1 [Compound 366] | > 75
CCOc1cc2nn(C)cc2cc1C(=O)Nc1cnc(N[C@H]2C[C@H]3CC[C@@H](C2)N3)cn1 [Compound 367] | > 75
CCOc1cc2nn(C)cc2cc1C(=O)Nc1cnc(N2CCNCC2)cn1 [Compound 370] | > 75
CCOc1cc2nn(C)cc2cc1C(=O)Nc1cnc(N2CCC(N)CC2)cn1 [Compound 371] | > 75
CCOc1cc2nn(C)cc2cc1C(=O)Nc1cnc(N2CCC(N)C2)cn1 (stereo not drawn) [Compound 372] | > 75
CCOc1cc2nn(C)cc2cc1C(=O)Nc1cnc(NC2CCNCC2)cn1 [Compound 373] | > 75
CCOc1cc2nn(C)cc2cc1C(=O)Nc1cnc(N2CCNC(C)C2)cn1 (stereo not drawn) [Compound 374] | > 75
CCOc1cc2nn(C)cc2cc1C(=O)Nc1cnc(NC2CCCNC2)cn1 (stereo not drawn) [Compound 375] | 50 to 75
CCOc1cc2nn(C)cc2cc1C(=O)Nc1cnc(N[C@@H]2CCNC2)cn1 [Compound 376] | > 75
CCOc1cc2nn(C)cc2cc1C(=O)Nc1cnc(N[C@@H]2CCCNC2)cn1 [Compound 377] | 50 to 75
CCOc1cc2nn(C)cc2cc1C(=O)Nc1cnc(NCC2CCCNC2)cn1 (stereo not drawn) [Compound 378] | < 50
CCOc1cc2nn(C)cc2cc1C(=O)Nc1cnc(N[C@@H]2CNC[C@H](F)C2)nc1 [Compound 380] | < 50
CCOc1cc2nn(C)cc2cc1C(=O)Nc1cnc(NCC(F)C2CCNCC2)nc1 (stereo not drawn) [Compound 381] | < 50

Compound | activation at 5 µM [%]
CCOc1cc2nn(C)cc2cc1C(=O)Nc1cnc(N2CCNC(C(F)F)C2)nc1 (stereo not drawn) [Compound 382] | < 50
CCOc1cc2nn(C)cc2cc1C(=O)Nc1cnc(NC2CCC23CNC3)nc1 (stereo not drawn) [Compound 383] | < 50
CCOc1cc2nn(C)cc2cc1C(=O)Nc1cnc(NCC[C@H]2C[C@H](N)C2)nc1 [Compound 384] | < 50
CCOc1cc2nn(C)cc2cc1C(=O)Nc1cnc(NCC2C=CCN2)nc1 (stereo not drawn) [Compound 385] | < 50
CCOc1cc2nn(C)cc2cc1C(=O)Nc1cnc(N[C@@H]2CNC[C@@H](F)C2)nc1 [Compound 386] | < 50
CCOc1cc2nn(C)cc2cc1C(=O)Nc1cnc(NCc2nn(C)c3c2CNCC3)nc1 [Compound 388] | < 50
CCOc1cc2nn(C)cc2cc1C(=O)Nc1cnc(NC[C@H](C)NC)nc1 [Compound 390] | < 50
CCOc1cc2nn(C)cc2cc1C(=O)Nc1cnc(NC[C@H]2C[C@@](F)(CN)C2)nc1 [Compound 391] | < 50
CCOc1cc2nn(C)cc2cc1C(=O)Nc1cnc(NC[C@]2(F)C[C@@H](N)C2)nc1 [Compound 392] | < 50
CCOc1cc2nn(C)cc2cc1C(=O)Nc1cnc(NCc2cc3n(n2)CCNC3)nc1 [Compound 393] | < 50
CCOc1cc2nn(C)cc2cc1C(=O)Nc1cnc(NC[C@H]2CNCC(C)(C)O2)nc1 [Compound 394] | < 50
CCOc1cc2nn(C)cc2cc1C(=O)Nc1cnc(NCC2CCNCCC2(F)F)nc1 (stereo not drawn) [Compound 395] | < 50
CCOc1cc2nn(C)cc2cc1C(=O)Nc1cnc(NC2CNCC23CC3)nc1 (stereo not drawn) [Compound 397] | < 50
CCOc1cc2nn(C)cc2cc1C(=O)Nc1cnc(NCCCC2CCCN2)nc1 (stereo not drawn) [Compound 398] | < 50
CCOc1cc2nn(C)cc2cc1C(=O)Nc1cnc(NC2CC3NCCOC3C2)nc1 (stereo not drawn) [Compound 399] | < 50
CCOc1cc2nn(C)cc2cc1C(=O)Nc1cnc(NC[C@H]2CC[C@H](CNC)CC2)nc1 [Compound 400] | < 50
CCOc1cc2nn(C)cc2cc1C(=O)Nc1cnc(NCc2c(C)nn3c2CNCC3)nc1 [Compound 403] | < 50
CCOc1cc2nn(C)cc2cc1C(=O)Nc1cnc(NCC2CC3(CCNC3)CO2)nc1 (stereo not drawn) [Compound 405] | < 50
CCOc1cc2nn(C)cc2cc1C(=O)Nc1cnc(NCC23CC(N)(C2)C3)nc1 [Compound 406] | < 50
CCOc1cc2nn(C)cc2cc1C(=O)Nc1cnc(NC2CNCC2(C)C)nc1 (stereo not drawn) [Compound 407] | < 50
CCOc1cc2nn(C)cc2cc1C(=O)Nc1cnc(NCC2CNC(C)(C)C2)nc1 (stereo not drawn) [Compound 408] | < 50
CCOc1cc2nn(C)cc2cc1C(=O)Nc1cnc(NCc2cnn3c2CNCC3)nc1 [Compound 409] | < 50
CCOc1cc2nn(C)cc2cc1C(=O)Nc1cnc(N2CCC(N)(CC)CC2)nc1 [Compound 410] | > 75
CCOc1cc2nn(C)cc2cc1C(=O)Nc1cnc(NCC2CNCCC2(F)F)nc1 (stereo not drawn) [Compound 411] | < 50
CCOc1cc2nn(C)cc2cc1C(=O)Nc1cnc(N2CC(NC)C(C)(C)C2)nc1 (stereo not drawn) [Compound 412] | < 50
CCOc1cc2nn(C)cc2cc1C(=O)Nc1cnc(NCC2CNC(C)C2)nc1 (stereo not drawn) [Compound 413] | < 50

Compound | activation at 5 µM [%]
CCOc1cc2nn(C)cc2cc1C(=O)Nc1cnc(N2CCC(n3ncc4c3CNC4)CC2)nc1 [Compound 414] | < 50
CCOc1cc2nn(C)cc2cc1C(=O)Nc1cnc(NC2CCCNC2C)nc1 (stereo not drawn) [Compound 415] | < 50
CCOc1cc2nn(C)cc2cc1C(=O)Nc1cnc(N2CC(N)CC2C)nc1 (stereo not drawn) [Compound 416] | 50 to 75
CCOc1cc2nn(C)cc2cc1C(=O)Nc1cnc(NCCC2CC(F)(F)CN2)nc1 (stereo not drawn) [Compound 417] | < 50
CCOc1cc2nn(C)cc2cc1C(=O)Nc1cnc(N2CCC(N)(c3cccc(F)c3)C2)nc1 (stereo not drawn) [Compound 418] | < 50
CCOc1cc2nn(C)cc2cc1C(=O)Nc1cnc(NCC(N)c2ccc(F)cc2)nc1 (stereo not drawn) [Compound 419] | < 50
CCOc1cc2nn(C)cc2cc1C(=O)Nc1cnc(NCC2(CN)CCC2)nc1 [Compound 421] | < 50
CCOc1cc2nn(C)cc2cc1C(=O)Nc1cnc(N2CC(N)C(C)(C)C2)nc1 (stereo not drawn) [Compound 422] | < 50
CCOc1cc2nn(C)cc2cc1C(=O)Nc1cnc(NCC2NCCc3sccc32)nc1 (stereo not drawn) [Compound 423] | < 50
CCOc1cc2nn(C)cc2cc1C(=O)Nc1cnc(NC(C)CNC)nc1 (stereo not drawn) [Compound 424] | < 50
CCOc1cc2nn(C)cc2cc1C(=O)Nc1cnc(NCC[C@@H]2C[C@H](OC)CN2)nc1 [Compound 425] | < 50
CCOc1cc2nn(C)cc2cc1C(=O)Nc1cnc(NCC2=CCNCC2)nc1 [Compound 426] | < 50
CCOc1cc2nn(C)cc2cc1C(=O)Nc1cnc(N2C[C@@H](F)C[C@H]2CN)nc1 [Compound 427] | < 50
CCOc1cc2nn(C)cc2cc1C(=O)Nc1cnc(NCC2CCCCNC2)nc1 (stereo not drawn) [Compound 428] | < 50
CCOc1cc2nn(C)cc2cc1C(=O)Nc1cnc(N2CCC3(CNCCO3)C2)nc1 (stereo not drawn) [Compound 429] | < 50
CCOc1cc2nn(C)cc2cc1C(=O)Nc1cnc(NCC2CCNCC2(F)F)nc1 (stereo not drawn) [Compound 431] | < 50
CCOc1cc2nn(C)cc2cc1C(=O)Nc1cnc(N2C[C@H](O)C[C@@H]2CN)nc1 [Compound 433] | < 50
CCOc1cc2nn(C)cc2cc1C(=O)Nc1cnc(NCC2CCNCC2C)nc1 (stereo not drawn) [Compound 434] | < 50
CCOc1cc2nn(C)cc2cc1C(=O)Nc1cnc(N2CCCC(C)(CN)C2)nc1 (stereo not drawn) [Compound 435] | < 50
CCOc1cc2nn(C)cc2cc1C(=O)Nc1cnc(N2CC3(CNCCO3)C2)nc1 [Compound 436] | < 50
CCOc1cc2nn(C)cc2cc1C(=O)Nc1cnc(N2CCCC2CNC)nc1 (stereo not drawn) [Compound 437] | < 50
CCOc1cc2nn(C)cc2cc1C(=O)Nc1cnc(N(C)C[C@H]2CCCN2)nc1 [Compound 438] | < 50
CCOc1cc2nn(C)cc2cc1C(=O)Nc1cnc(NCC2(C)CCNC2)nc1 (stereo not drawn) [Compound 439] | < 50
CCOc1cc2nn(C)cc2cc1C(=O)Nc1cnc(N2C[C@@H](F)C[C@H]2CNC)nc1 [Compound 440] | < 50
CCOc1cc2nn(C)cc2cc1C(=O)Nc1cnc(N2CCCC3(CCNC3)C2)nc1 (stereo not drawn) [Compound 441] | < 50
CCOc1cc2nn(C)cc2cc1C(=O)Nc1cnc(N2CCC3(CCCN3)CC2)nc1 [Compound 442] | > 75
